According to ChEMBL document CHEMBL1201862, “PubChem BioAssay data set” (2004):
Each block holds one compound with its values, some of them ahead of it. Calls of active or inactive are those of the source.

Experiments:
[1] = target: T1, Sentrin-specific protease 8 (Homo sapiens, UniProt Q96LD8); format: functional;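 note: luminescence read-out of SENP8 inhibition, dose-response confirmation following an ultra-high-throughput screen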
T1 sequence (Q96LD8 whole entry): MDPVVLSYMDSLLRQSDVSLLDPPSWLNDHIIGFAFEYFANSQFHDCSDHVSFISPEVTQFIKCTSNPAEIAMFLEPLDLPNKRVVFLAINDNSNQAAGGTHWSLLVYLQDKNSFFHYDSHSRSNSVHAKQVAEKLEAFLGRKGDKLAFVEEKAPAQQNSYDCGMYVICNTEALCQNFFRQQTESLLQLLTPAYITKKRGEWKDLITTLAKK

SUMO-activating enzyme = SUMO-activating enzyme (Homo sapiens, UniProt Q9UBT2); assay: inhibitors of in vitro SUMOylation cascade, primary screen, biochemical, HTRF, uHTS (AID 2006); format: protein-complex assay
[2] = target: T2, Sentrin-specific protease 7 (Homo sapiens, UniProt Q9BQF6); assay: SENP7 protease inhibitors, SAR follow-up, biochemical, luminescence (AID 504497); format: functional
T2 sequence (Q9BQF6 whole entry): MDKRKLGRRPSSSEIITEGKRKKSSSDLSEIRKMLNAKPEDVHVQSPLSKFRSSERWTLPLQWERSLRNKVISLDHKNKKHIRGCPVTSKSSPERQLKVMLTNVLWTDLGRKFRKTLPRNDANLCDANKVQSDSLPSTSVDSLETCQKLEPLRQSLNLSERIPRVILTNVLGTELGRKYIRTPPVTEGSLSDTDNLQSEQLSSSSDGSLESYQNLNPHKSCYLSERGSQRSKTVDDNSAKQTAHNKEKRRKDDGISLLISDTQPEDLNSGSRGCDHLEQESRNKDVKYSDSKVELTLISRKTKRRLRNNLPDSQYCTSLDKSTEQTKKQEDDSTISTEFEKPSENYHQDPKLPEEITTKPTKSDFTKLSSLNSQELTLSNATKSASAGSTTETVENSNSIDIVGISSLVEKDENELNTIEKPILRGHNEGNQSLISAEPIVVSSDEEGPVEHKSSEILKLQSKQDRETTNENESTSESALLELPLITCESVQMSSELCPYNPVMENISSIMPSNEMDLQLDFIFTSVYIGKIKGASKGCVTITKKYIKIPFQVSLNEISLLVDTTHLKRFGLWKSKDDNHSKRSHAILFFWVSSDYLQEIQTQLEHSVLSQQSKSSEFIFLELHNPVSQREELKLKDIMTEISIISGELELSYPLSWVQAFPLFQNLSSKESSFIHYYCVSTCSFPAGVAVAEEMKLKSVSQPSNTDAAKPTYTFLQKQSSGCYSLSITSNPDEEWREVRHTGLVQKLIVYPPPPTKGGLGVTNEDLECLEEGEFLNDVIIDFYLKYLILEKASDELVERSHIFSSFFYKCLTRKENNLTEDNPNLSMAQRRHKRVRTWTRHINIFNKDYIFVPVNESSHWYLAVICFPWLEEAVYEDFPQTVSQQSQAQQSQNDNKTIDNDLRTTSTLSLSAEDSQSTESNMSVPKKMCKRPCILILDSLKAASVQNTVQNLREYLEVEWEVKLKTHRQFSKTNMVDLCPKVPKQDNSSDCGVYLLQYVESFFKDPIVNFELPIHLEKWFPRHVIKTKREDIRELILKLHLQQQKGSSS

[3] = target: cGMP-dependent protein kinase 1 (Homo sapiens, UniProt Q13976); format: functional;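 note: value from a kinome panel screen with PRKG1 as the panel member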
[4] = target: Serine/threonine-protein kinase D2 (Homo sapiens, UniProt Q9BZL6); format: functional;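 note: measured against PRKD2 as one member of a kinome-wide kinase profiling panel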
[5] = target: Tyrosine-protein kinase receptor TYRO3 (Homo sapiens, UniProt Q06418); format: functional;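 note: TYRO3 value obtained as one member of a kinome-wide profiling panel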
[6] = target: Testis-specific serine/threonine-protein kinase 2 (Homo sapiens, UniProt Q96PF2); format: functional;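 note: part of the Navigating the Kinome panel, target entry STK22B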
[7] = target: Death-associated protein kinase 3 (Homo sapiens, UniProt O43293); format: functional;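 note: measured as one member of a kinome-wide profiling panel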
[8] = target: Serine/threonine-protein kinase pim-1 (Homo sapiens, UniProt P11309); format: functional
[9] = target: Tyrosine-protein kinase BTK (Homo sapiens, UniProt Q06187); format: functional
[10] = target: Protein kinase C gamma type (Homo sapiens, UniProt P05129); format: functional
[11] = target: Hepatocyte growth factor receptor (Homo sapiens, UniProt P08581); format: functional;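 note: kinase panel profiling across the kinome, with MET as the panel member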
[12] = target: Interleukin-1 receptor-associated kinase 4 (Homo sapiens, UniProt Q9NWZ3); format: functional
[13] = target: Calcium/calmodulin-dependent protein kinase type 1 (Homo sapiens, UniProt Q14012); format: functional
[14] = target: Serine/threonine-protein kinase PLK1 (Homo sapiens, UniProt P53350); format: functional;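 note: PLK1 measured as one member of a kinome-wide profiling panel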
[15] = target: Glycogen synthase kinase-3 beta (Homo sapiens, UniProt P49841); format: functional;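 note: value comes from a broad kinome profiling panel, with GSK3B as the panel member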
[16] = target: cAMP-dependent protein kinase catalytic subunit alpha (Homo sapiens, UniProt P17612); format: functional
[17] = target: Dual specificity protein kinase CLK4 (Homo sapiens, UniProt Q9HAZ1); format: functional
[18] = target: Mitogen-activated protein kinase kinase kinase kinase 4 (Homo sapiens, UniProt O95819); format: functional
[19] = target: Calcium/calmodulin-dependent protein kinase type II subunit alpha (Homo sapiens, UniProt Q9UQM7); assay: Navigating the Kinome. Panel member name: CAMK2A; format: functional
[20] = target: Leukocyte tyrosine kinase receptor (Homo sapiens, UniProt P29376); assay: Navigating the Kinome. Panel member name: LTK; format: functional

Sequence of Testis-specific serine/threonine-protein kinase 2 (Q96PF2 whole entry): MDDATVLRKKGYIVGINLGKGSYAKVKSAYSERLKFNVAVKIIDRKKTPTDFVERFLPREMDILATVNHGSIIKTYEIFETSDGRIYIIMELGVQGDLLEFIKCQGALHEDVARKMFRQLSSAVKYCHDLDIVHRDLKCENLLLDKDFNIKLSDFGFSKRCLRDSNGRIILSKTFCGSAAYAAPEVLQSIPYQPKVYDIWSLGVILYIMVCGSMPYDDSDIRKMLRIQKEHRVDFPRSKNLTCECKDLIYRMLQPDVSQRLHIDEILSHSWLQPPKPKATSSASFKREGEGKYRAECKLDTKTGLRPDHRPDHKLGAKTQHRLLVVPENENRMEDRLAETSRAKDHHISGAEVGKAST
Sequence of SUMO-activating enzyme (Q9UBE0 whole entry): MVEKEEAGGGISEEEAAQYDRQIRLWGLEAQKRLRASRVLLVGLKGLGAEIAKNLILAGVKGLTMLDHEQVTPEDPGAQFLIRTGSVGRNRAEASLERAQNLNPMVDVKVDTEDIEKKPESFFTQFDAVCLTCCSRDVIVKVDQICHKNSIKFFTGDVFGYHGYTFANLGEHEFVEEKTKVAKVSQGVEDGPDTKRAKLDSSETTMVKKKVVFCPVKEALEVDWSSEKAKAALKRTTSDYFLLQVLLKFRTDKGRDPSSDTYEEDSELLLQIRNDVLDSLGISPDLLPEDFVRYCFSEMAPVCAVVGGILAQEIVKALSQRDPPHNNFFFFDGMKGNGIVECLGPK
Sequence of SUMO-activating enzyme (Q9UBT2 whole entry): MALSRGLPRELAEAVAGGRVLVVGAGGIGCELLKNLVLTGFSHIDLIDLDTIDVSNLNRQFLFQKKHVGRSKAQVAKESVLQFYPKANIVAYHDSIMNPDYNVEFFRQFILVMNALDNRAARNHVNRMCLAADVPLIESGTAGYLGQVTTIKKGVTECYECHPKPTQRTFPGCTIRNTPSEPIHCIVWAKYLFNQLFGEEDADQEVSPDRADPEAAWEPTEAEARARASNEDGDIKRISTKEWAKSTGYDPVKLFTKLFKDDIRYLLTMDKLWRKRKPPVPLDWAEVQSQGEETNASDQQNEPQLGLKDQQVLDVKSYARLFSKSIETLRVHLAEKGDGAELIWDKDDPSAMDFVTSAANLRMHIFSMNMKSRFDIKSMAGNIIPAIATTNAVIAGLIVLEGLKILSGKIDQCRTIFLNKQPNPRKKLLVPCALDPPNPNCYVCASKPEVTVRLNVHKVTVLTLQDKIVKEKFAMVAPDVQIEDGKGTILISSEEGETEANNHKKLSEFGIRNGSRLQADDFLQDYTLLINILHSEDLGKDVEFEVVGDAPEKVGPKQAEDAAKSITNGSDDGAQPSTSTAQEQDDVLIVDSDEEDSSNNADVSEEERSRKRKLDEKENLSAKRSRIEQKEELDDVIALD
Sequence of Serine/threonine-protein kinase D2 (Q9BZL6 whole entry): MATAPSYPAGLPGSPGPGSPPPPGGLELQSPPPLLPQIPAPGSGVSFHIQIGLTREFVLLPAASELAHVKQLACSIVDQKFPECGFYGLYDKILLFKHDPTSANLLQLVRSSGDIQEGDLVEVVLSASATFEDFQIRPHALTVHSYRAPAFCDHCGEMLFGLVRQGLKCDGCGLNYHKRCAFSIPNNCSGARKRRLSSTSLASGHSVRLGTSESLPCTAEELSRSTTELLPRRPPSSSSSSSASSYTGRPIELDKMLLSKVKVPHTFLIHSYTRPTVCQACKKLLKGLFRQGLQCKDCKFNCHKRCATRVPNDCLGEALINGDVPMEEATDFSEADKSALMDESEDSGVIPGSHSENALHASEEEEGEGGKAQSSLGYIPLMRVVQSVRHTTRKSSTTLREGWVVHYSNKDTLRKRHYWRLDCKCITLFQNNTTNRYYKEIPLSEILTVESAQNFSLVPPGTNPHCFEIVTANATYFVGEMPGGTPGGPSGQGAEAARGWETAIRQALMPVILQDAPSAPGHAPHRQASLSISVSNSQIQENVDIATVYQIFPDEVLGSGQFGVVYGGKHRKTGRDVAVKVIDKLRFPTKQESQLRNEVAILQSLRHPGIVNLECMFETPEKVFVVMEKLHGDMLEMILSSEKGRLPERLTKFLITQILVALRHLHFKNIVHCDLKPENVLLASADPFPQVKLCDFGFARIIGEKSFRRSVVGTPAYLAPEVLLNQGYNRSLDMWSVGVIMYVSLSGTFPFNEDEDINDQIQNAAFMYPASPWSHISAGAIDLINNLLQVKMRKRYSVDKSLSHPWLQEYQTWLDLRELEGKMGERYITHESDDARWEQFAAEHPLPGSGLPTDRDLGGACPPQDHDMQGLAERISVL
Sequence of Tyrosine-protein kinase BTK (Q06187 whole entry): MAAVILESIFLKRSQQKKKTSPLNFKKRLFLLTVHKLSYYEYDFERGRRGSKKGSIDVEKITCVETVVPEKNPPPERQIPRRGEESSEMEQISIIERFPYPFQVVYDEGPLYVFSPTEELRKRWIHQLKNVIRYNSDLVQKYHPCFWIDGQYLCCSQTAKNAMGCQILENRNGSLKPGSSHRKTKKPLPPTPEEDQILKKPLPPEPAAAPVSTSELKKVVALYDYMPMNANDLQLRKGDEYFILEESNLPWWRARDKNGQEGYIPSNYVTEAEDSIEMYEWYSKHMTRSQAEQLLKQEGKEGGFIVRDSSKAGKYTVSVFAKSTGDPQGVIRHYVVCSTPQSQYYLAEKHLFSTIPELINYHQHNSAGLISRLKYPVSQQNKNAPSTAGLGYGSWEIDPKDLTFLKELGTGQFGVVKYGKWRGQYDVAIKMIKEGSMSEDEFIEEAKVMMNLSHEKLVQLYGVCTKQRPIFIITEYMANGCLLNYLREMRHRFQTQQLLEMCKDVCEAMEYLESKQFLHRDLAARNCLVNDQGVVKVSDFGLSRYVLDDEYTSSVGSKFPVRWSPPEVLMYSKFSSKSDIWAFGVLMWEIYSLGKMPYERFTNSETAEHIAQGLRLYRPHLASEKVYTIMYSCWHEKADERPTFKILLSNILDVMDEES
Sequence of Interleukin-1 receptor-associated kinase 4 (Q9NWZ3 whole entry): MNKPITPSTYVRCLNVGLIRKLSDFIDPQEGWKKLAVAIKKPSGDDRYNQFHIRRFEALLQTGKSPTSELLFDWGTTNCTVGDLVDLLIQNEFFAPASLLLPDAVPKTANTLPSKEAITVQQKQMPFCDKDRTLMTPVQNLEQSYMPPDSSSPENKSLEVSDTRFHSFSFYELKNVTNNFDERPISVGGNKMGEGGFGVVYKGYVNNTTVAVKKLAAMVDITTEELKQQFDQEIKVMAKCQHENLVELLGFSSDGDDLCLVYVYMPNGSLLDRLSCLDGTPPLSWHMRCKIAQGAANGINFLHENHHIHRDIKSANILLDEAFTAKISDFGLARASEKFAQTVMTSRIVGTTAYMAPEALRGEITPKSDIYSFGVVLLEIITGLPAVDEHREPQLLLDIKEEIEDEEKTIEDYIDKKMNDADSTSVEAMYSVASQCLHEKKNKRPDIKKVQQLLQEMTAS
Sequence of Hepatocyte growth factor receptor (P08581 whole entry): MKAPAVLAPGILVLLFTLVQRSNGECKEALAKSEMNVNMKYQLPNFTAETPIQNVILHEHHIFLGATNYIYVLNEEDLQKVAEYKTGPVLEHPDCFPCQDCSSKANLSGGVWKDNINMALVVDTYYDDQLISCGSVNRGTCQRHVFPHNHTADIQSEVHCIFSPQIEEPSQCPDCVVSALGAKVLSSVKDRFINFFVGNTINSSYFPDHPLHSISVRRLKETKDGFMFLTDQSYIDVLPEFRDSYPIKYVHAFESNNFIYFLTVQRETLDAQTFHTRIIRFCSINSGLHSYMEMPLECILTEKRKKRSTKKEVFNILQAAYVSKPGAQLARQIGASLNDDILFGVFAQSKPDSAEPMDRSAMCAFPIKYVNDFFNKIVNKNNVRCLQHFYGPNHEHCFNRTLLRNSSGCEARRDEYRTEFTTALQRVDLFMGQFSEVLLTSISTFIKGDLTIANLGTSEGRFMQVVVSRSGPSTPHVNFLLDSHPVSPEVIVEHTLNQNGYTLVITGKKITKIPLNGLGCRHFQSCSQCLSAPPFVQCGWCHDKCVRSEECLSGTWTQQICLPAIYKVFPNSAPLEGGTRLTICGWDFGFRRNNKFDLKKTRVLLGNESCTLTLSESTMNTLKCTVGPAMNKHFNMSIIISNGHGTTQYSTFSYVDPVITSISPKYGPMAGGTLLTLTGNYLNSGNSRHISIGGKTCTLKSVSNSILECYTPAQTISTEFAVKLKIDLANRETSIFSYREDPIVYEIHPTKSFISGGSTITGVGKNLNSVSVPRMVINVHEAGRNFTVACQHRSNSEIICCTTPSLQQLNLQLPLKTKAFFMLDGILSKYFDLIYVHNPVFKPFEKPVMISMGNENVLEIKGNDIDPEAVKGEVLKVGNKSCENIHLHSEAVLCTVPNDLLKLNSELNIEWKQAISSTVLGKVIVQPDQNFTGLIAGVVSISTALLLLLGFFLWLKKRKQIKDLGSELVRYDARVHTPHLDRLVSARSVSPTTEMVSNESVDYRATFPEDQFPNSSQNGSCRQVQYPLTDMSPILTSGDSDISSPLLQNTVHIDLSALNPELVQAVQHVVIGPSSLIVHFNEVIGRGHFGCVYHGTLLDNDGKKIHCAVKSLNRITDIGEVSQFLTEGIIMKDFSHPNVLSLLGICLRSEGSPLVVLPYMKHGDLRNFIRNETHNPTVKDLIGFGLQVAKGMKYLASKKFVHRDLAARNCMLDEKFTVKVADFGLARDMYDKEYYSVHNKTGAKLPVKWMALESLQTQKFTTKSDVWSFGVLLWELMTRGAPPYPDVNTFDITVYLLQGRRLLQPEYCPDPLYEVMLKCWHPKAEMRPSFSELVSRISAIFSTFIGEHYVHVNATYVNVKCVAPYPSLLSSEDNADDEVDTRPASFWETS
Sequence of Serine/threonine-protein kinase pim-1 (P11309 whole entry): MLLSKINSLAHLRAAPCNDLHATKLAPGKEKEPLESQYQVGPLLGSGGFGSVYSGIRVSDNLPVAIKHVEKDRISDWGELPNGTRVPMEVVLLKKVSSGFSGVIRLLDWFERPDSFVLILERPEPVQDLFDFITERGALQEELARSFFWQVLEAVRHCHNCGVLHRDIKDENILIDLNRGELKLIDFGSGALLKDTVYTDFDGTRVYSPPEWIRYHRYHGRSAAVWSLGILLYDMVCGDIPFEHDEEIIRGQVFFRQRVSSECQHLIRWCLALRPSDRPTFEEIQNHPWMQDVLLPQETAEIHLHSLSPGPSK

SMILES: Cc1c(NC(=O)C(C)OC(=O)c2ccc([N+](=O)[O-])s2)c(=O)n(-c2ccccc2)n1C (stereo unspecified)
IC50 [1]: 6500 nM (active)

SMILES: COc1cc(Br)c(C(=O)c2nccc3cc(OC)c(OC)cc23)cc1OC
IC50 (SUMO-activating enzyme): 12800 nM (active)
IC50 [2]: 2990 nM (active)

Ki [3]: 631 nM (active)
Ki [4]: 1000 nM (active)
Ki [5]: > 2510 nM (inactive)
Ki [6]: > 1580 nM (inactive)
Ki [8]: > 6310 nM (inactive)
Ki [9]: > 3980 nM (inactive)
Ki [10]: 2510 nM (active)
Ki [11]: > 2510 nM (inactive)
Ki [12]: 2510 nM (active)
Ki [13]: > 1580 nM (inactive)
Ki [14]: > 7940 nM (inactive)
Ki [15]: > 5010 nM (inactive)
Ki [16]: 79.4 nM (active)
Ki [17]: 158 nM (active)
Ki [18]: > 2510 nM (inactive)
Ki [19]: 3980 nM (active)
Ki [20]: 398 nM (active)
SMILES: CC(N)C1CCC(C(=O)Nc2ccnc3[nH]ccc23)CC1 (stereo unspecified)
Ki [7]: > 1260 nM (inactive)
